Measured values taken from PubChem BioAssay (NCI).
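Method: 48-hour compound exposure of cells in 96-well plates, five concentrations, linear interpolation of endpoints. GI50 marks 50% less growth. TGI marks complete inhibition of growth.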

Experiments:
Experiment in all cases: inhibition of tumour cell growth, NCI panel, 48 h
CCRF-CEM leukemia = system: CCRF-CEM leukemia
HOP-62 NSCLC = system: HOP-62 NSCLC
SF-295 CNS = system: SF-295 CNS
MDA-MB-435 = system: MDA-MB-435
EKVX NSCLC = system: EKVX NSCLC
LOX IMVI melanoma = system: LOX IMVI melanoma
BT-549 breast = system: BT-549 breast
M14 melanoma = system: M14 melanoma
HT29 colon = system: HT29 colon
786-0 renal = system: 786-0 renal
SN12C renal = system: SN12C renal
T-47D breast = system: T-47D breast
UACC-62 melanoma = system: UACC-62 melanoma
A549 NSCLC = system: A549 NSCLC
HCT-116 colon = system: HCT-116 colon
SW-620 colon = system: SW-620 colon
SK-MEL-2 melanoma = system: SK-MEL-2 melanoma
MDA-MB-231 breast = system: MDA-MB-231 breast
HL-60(TB) leukemia = system: HL-60(TB) leukemia
MOLT-4 leukemia = system: MOLT-4 leukemia
HS 578T breast = system: HS 578T breast
MCF7 breast = system: MCF7 breast
KM12 colon = system: KM12 colon
RXF 393 renal = system: RXF 393 renal
SK-OV-3 ovarian = system: SK-OV-3 ovarian
MDA-MB-468 breast = system: MDA-MB-468 breast
COLO 205 colon = system: COLO 205 colon
SR leukemia = system: SR leukemia
HOP-92 NSCLC = system: HOP-92 NSCLC
UACC-257 melanoma = system: UACC-257 melanoma
NCI/ADR-RES ovarian = system: NCI/ADR-RES ovarian
HCC-2998 colon = system: HCC-2998 colon
DU-145 prostate = system: DU-145 prostate
TK-10 renal = system: TK-10 renal
RPMI-8226 leukemia = system: RPMI-8226 leukemia
K-562 leukemia = system: K-562 leukemia
SK-MEL-5 melanoma = system: SK-MEL-5 melanoma
UO-31 renal = system: UO-31 renal
MALME-3M melanoma = system: MALME-3M melanoma
CAKI-1 renal = system: CAKI-1 renal
OVCAR-4 ovarian = system: OVCAR-4 ovarian
SF-539 CNS = system: SF-539 CNS
SK-MEL-28 melanoma = system: SK-MEL-28 melanoma
SF-268 CNS = system: SF-268 CNS
NCI-H460 lung = system: NCI-H460 lung
HCT-15 colon = system: HCT-15 colon
SNB-19 CNS = system: SNB-19 CNS
U251 CNS = system: U251 CNS
OVCAR-5 ovarian = system: OVCAR-5 ovarian
NCI-H522 lung = system: NCI-H522 lung
NCI-H23 lung = system: NCI-H23 lung
A498 renal = system: A498 renal
OVCAR-3 ovarian = system: OVCAR-3 ovarian
OVCAR-8 ovarian = system: OVCAR-8 ovarian
IGROV1 ovarian = system: IGROV1 ovarian
PC-3 prostate = system: PC-3 prostate
SNB-75 CNS = system: SNB-75 CNS

In the case of `COc1ccc(-c2nc3ccc(-c4nnc(SCc5ccccc5)o4)cc3[nH]2)cc1OC`, the GI50 (CCRF-CEM leukemia) is reported as 16.7 µM, the TGI (CCRF-CEM leukemia) is reported as > 100 µM and the GI50 (HOP-62 NSCLC) is reported as 3.88 µM. The TGI (HOP-62 NSCLC) was 23.2 µM, the GI50 (SF-295 CNS) was 5.54 µM and the TGI (SF-295 CNS) was > 100 µM. The GI50 (MDA-MB-435) was 21 µM, the TGI (MDA-MB-435) was > 100 µM and the GI50 (EKVX NSCLC) was 24.9 µM. The TGI (EKVX NSCLC) was > 100 µM, the GI50 (LOX IMVI melanoma) was 4.74 µM and the TGI (LOX IMVI melanoma) was > 100 µM. For the same molecule, the GI50 (BT-549 breast) was 21.3 µM, the TGI (BT-549 breast) was > 100 µM and the GI50 (M14 melanoma) was 26.5 µM. The TGI (M14 melanoma) was > 100 µM, the GI50 (HT29 colon) was 16.2 µM and the TGI (HT29 colon) was > 100 µM. It also gave a GI50 (786-0 renal) of 5.88 µM, a TGI (786-0 renal) of 40.2 µM and a GI50 (SN12C renal) of 7.15 µM. For the same molecule, the TGI (SN12C renal) was > 100 µM, the GI50 (T-47D breast) was 8.53 µM and the TGI (T-47D breast) was > 100 µM. It also gave a GI50 (UACC-62 melanoma) of 7.2 µM, a TGI (UACC-62 melanoma) of 43.8 µM and a GI50 (A549 NSCLC) of 4.8 µM. The TGI (A549 NSCLC) was > 100 µM, the GI50 (HCT-116 colon) was 8.32 µM and the TGI (HCT-116 colon) was > 100 µM. The GI50 (SW-620 colon) was 17 µM, the TGI (SW-620 colon) was > 100 µM and the GI50 (SK-MEL-2 melanoma) was > 100 µM. For the same molecule, the TGI (SK-MEL-2 melanoma) was > 100 µM, the GI50 (MDA-MB-231 breast) was 4.28 µM and the TGI (MDA-MB-231 breast) was 23.2 µM. The GI50 (HL-60(TB) leukemia) was 57.5 µM, the TGI (HL-60(TB) leukemia) was > 100 µM and the GI50 (MOLT-4 leukemia) was 27.8 µM. The TGI (MOLT-4 leukemia) was > 100 µM, the GI50 (HS 578T breast) was 3.5 µM and the TGI (HS 578T breast) was > 100 µM. For the same molecule, the GI50 (MCF7 breast) was 13.8 µM, the TGI (MCF7 breast) was > 100 µM and the GI50 (KM12 colon) was > 100 µM. For the same molecule, the TGI (KM12 colon) was > 100 µM, the GI50 (RXF 393 renal) was 3.6 µM and the TGI (RXF 393 renal) was > 100 µM. For the same molecule, the GI50 (SK-OV-3 ovarian) was > 100 µM, the TGI (SK-OV-3 ovarian) was > 100 µM and the GI50 (MDA-MB-468 breast) was 7.89 µM. For the same molecule, the TGI (MDA-MB-468 breast) was 38.6 µM, the GI50 (COLO 205 colon) was 38 µM and the TGI (COLO 205 colon) was > 100 µM. The GI50 (SR leukemia) was 6.45 µM, the TGI (SR leukemia) was > 100 µM and the GI50 (HOP-92 NSCLC) was 4.17 µM. For the same molecule, the TGI (HOP-92 NSCLC) was 94.6 µM, the GI50 (UACC-257 melanoma) was 56.4 µM and the TGI (UACC-257 melanoma) was > 100 µM. For the same molecule, the GI50 (NCI/ADR-RES ovarian) was 11.1 µM, the TGI (NCI/ADR-RES ovarian) was > 100 µM and the GI50 (HCC-2998 colon) was 57 µM. For the same molecule, the TGI (HCC-2998 colon) was > 100 µM, the GI50 (DU-145 prostate) was 9.71 µM and the TGI (DU-145 prostate) was > 100 µM. The GI50 (TK-10 renal) was 8.62 µM, the TGI (TK-10 renal) was 46.7 µM and the GI50 (RPMI-8226 leukemia) was 21.7 µM. The TGI (RPMI-8226 leukemia) was > 100 µM, the GI50 (K-562 leukemia) was 28.3 µM and the TGI (K-562 leukemia) was > 100 µM. The GI50 (SK-MEL-5 melanoma) was 7.88 µM, the TGI (SK-MEL-5 melanoma) was > 100 µM and the GI50 (UO-31 renal) was 57.4 µM. The TGI (UO-31 renal) was > 100 µM, the GI50 (MALME-3M melanoma) was 3.18 µM and the TGI (MALME-3M melanoma) was 11.5 µM. For the same molecule, the GI50 (CAKI-1 renal) was > 100 µM, the TGI (CAKI-1 renal) was > 100 µM and the GI50 (OVCAR-4 ovarian) was 3.08 µM. For the same molecule, the TGI (OVCAR-4 ovarian) was 12.3 µM, the GI50 (SF-539 CNS) was 6.54 µM and the TGI (SF-539 CNS) was > 100 µM. For the same molecule, the GI50 (SK-MEL-28 melanoma) was 22 µM, the TGI (SK-MEL-28 melanoma) was > 100 µM and the GI50 (SF-268 CNS) was 32.7 µM. For the same molecule, the TGI (SF-268 CNS) was > 100 µM, the GI50 (NCI-H460 lung) was 5.67 µM and the TGI (NCI-H460 lung) was > 100 µM. For the same molecule, the GI50 (HCT-15 colon) was 13.8 µM, the TGI (HCT-15 colon) was > 100 µM and the GI50 (SNB-19 CNS) was > 100 µM. For the same molecule, the TGI (SNB-19 CNS) was > 100 µM, the GI50 (U251 CNS) was 4.72 µM and the TGI (U251 CNS) was 20.4 µM. The GI50 (OVCAR-5 ovarian) was 32.4 µM, the TGI (OVCAR-5 ovarian) was > 100 µM and the GI50 (NCI-H522 lung) was 23 µM. The TGI (NCI-H522 lung) was > 100 µM, the GI50 (NCI-H23 lung) was 11 µM and the TGI (NCI-H23 lung) was 79.9 µM. For the same molecule, the GI50 (A498 renal) was > 100 µM, the TGI (A498 renal) was > 100 µM and the GI50 (OVCAR-3 ovarian) was 4.73 µM. The TGI (OVCAR-3 ovarian) was 88.9 µM, the GI50 (OVCAR-8 ovarian) was 5.6 µM and the TGI (OVCAR-8 ovarian) was > 100 µM. For the same molecule, the GI50 (IGROV1 ovarian) was 36 µM, the TGI (IGROV1 ovarian) was > 100 µM and the GI50 (PC-3 prostate) was 19.8 µM. For the same molecule, the TGI (PC-3 prostate) was > 100 µM, the GI50 (SNB-75 CNS) was 2.24 µM and the TGI (SNB-75 CNS) was 7.27 µM.
